The values below come from patent publication US12486242B2, “Long-acting low-addiction HNK derivative and preparation method therefor” (SHENZHEN RUIJIAN BIOTECHNOLOGY CO., LTD, priority 2020, dated 2025).

“Also recorded” adds a separate entry of the source. Where a name gives a salt, the structure may show the parent alone.

The subject of series [1] is mice. The series can be described thus: Position preference (CPP) experiment, three-room system. Type of series: in vivo, C57BL/6J mice. The settings on record: doses 5 mg, 10 mg, 30 mg, intragastric, 6 days training, residence time in white box within 15 min. The protocol:
(§1) Animals: Male C57BL/6J mice of 8-12 weeks old were randomly divided into groups, 10 mice in each group, with body weight of 18-22 g, fed at room temperature (22±1° C.), under humidity of (50±10)%, illumination time from 8:00 to20:00. The mice had free access to food and water, and adapted to the experimental environment for at least 2-3 days before the experiments. All experiments were conducted from 8:00 to 16:00.
1.2 CPP experiment: A three-room CPP system includes black and white boxes (25 cm×25 cm×30 cm) at left and right sides, separated by a middle box (10 cm×25 cm×30 cm). During the experiment, mice were put into the middle box and could freely move to the black and white boxes. A door with the size of 5 cm×5 cm was arranged between the middle box and each of the black and white boxes. The experiment adopted a biased procedure, which had three stages of pre-test, training, and test stages. During the whole experiment, the environmental conditions such as light, color and smell in the boxes were guaranteed to be consistent.
Pre-test stage: On days 1-3, the spacer plates between the boxes were removed, and all mice were put into the middle box after being injected with saline subcutaneously, allowing them to move freely in the boxes for 15 min, once a day for 3 consecutive days. The residence time of the mice in the black and white boxes was respectively recorded to determine the natural preference of the mice. The mice were trained with the non-natural preference box as the companion medicine box. […]
Test stage: on day 10, the spacer plates were removed, and the mice were put into the middle box allowing to move freely. At the same time, the residence time of the mice in the white box within 15 min were recorded.
Position preference was tested by a three-room system. […] After continuous training for 6 days, the test was carried out, and the residence times of the mice within 15 min in the white box were recorded. […]

For series [2], the system named is mice. The series can be described thus: Behavioral sensitization experiment (spontaneous activity measurement). Type of series: in vivo, C57BL/6J mice. Conditions: doses 5 mg, 10 mg, 30 mg, intragastric, d1, d7, d15. The procedure: as §1
1.1 Small animal spontaneous activity measurement: An animal spontaneous activity infrared analysis system consists of a spontaneous activity box, an infrared probe device and a data acquisition system. The size of the spontaneous activity box is 40 cm×40 cm×65 cm, with sound isolation and light isolation, and mounted with a ventilation device. The activity statuses of the animals were recorded by the infrared probe, and the numbers of spontaneous activities of the animals were calculated. In order to test the effect of drugs on spontaneous activities of mice, the mice were randomly divided into 4 groups with 10 mice in each group. The Groups included: vehicle, I6, C, D (5.0, 10.0, 30.0 mg/kg), mor (10 mg/kg). The mice were administrated intragastrically once a day in the morning for 7 consecutive days; after that, the drugs withdrew for 7 days (without any treatment). On the 15th day, mice in each group were given Veh and the drugs (5.0, 10.0, 30.0 mg/kg) by intragastric administration to stimulate. Spontaneous activity of the mice within 1 hour was measured immediately after administration at d1, d7 and d15.
Statistical analysis: Experimental data were expressed as X±SEM. Graphpad software was used for statistical analysis, and t-test was used for comparison between two groups. One-way ANOVA analysis was used for comparison among multiple groups, and then LSD method was used for pairwise comparison.

Series [3] has as its system mice. The series can be described thus: Forced swimming test (FST), immobility time. It counts as in vivo. The settings on record: for antidepressant effect (immobility time): intragastric administration, mice; for antidepressant effect: dose not given; for course of efficacy within 7 days / effect on the 7th day: intragastric; for course of efficacy within 7 days: 1 hour to 7 days. The protocol:
One hour before the forced swimming test (FST), the mice were transferred to the laboratory. The test was conducted under normal light condition and monitored by a digital camera. During the test, the mice were individually placed in transparent glass cylinders (28.5 cm in height, 14 cm in diameter) filled with 20 cm height of water (23±1° C.). On the first day, the mice were trained for 6 minutes and then removed from the cylinder. On the second day, the mice were administered saline, HNK, Compound 16, Compound C, and Compound D, and after different time periods, their immobility time was tested. During the last 4 minutes of the entire 6-minute swimming test, the static time was recorded through EthoVision XT (Noldus, Netherlands) of Noldus system. The static time was defined as passive floating, that is there was no other movement except the movements necessary to keep the animal's head above the water. After every two to three tests, the water in the cylinders was replaced. After the swimming test, the mice were removed from the water and dried under an infrared lamp.
The mice were given 1 mg (A), 10 mg (B) and 30 mg (C) of HNK and Compund I6 by intragastric administration, respectively, and their immobility time was measured after 1 hour and 7 days. The percentage of immobility time is expressed as mean±SEM. *p<0.05, **p<0.01, compared to base test. Mice of each group was N=8. Saline: saline group; I6: Compound I6 treatment group; HNK: 2R,6R-hydroxynorketamine treatment group.

Series [4] in a line: Applicant's experimental studies on HNK (efficacy duration, addiction). Conditions: in vivo.
In series [5] the test system is NMDA receptor. The settings on record: cited from earlier work.
Series [6] has as its system patients. Conditions: within 72 hours after a single intravenous injection, 0.5 mg/kg; cited from earlier work.

For the compound `N[C@]1(c2ccccc2Cl)CCC[C@H](OC(=O)c2ccc(CN3CCOCC3)cc2)C1=O` [Compound D], in series [1], the “position preference effect on mice” value is “induced position preference”. For the same compound, the “behavioral sensitization effect on mice” value in series [2] was “behavioral sensitizing effect; also recorded: behavioral sensitization effect”. In series [3] (30 mg), the “antidepressant effect (immobility time)” value was “no antidepressant effect”. In addition, the antidepressant effect result in series [3] was “no antidepressant effect”.

Regarding `N[C@@]1(c2ccccc2Cl)CCC[C@@H](OC(=O)c2ccoc2)C1=O` [Compound I6, (2R,6R)-6-(3-furan)formyloxynorketamine hydrochloride salt], in series [1] (hydrochloride salt), the “position preference effect on mice” value is “no position preference effect; also recorded: non-position preference effect”. In addition, the “behavioral sensitization effect on mice” value in series [2] (hydrochloride salt) is on record as “no behavioral sensitization effect; also recorded: non-sensitization effect”. Moreover, the “antidepressant effect (immobility time)” value in series [3] (1 mg) is listed as “no antidepressant effect”; in series [3] (10 mg), “antidepressant effect”; in series [3] (30 mg) it was “antidepressant effect”. The “difference between the 10 mg and 30 mg treatment groups” value in series [3] (10 mg vs 30 mg) is reported as “no significant difference”. For the same compound, the “course of efficacy within 7 days” value in series [3] (10 mg) and in series [3] (30 mg) was “substantially did not decrease” in each case. Moreover, the “immobility time during forced swimming” value in series [3] (compared with the HNK-treated group) is “less immobility time”. Besides, the “antidepressant effect at the 7th day after administration” value in series [3] (compared with the HNK-treated group, dose not stated) was “significant antidepressant effect”.

In the case of `N[C@@]1(c2ccccc2Cl)CCC[C@@H](O)C1=O` [HNK, (2R,6R)-6-hydroxydemethylketamine, reference compound], in series [4], the addiction entry was “a certain degree of addiction” and the “duration of efficacy after administration” value is on record as “basically lost activity within one week”. In series [5], the “activity to NMDA receptor” value is “no activity”. For the same compound, the “antidepressant effect (immobility time)” value in series [3] (1 mg) was “no antidepressant effect”. For the same compound, in series [3] (10 mg), the “antidepressant effect (immobility time)” value is reported as “antidepressant effect”, the “effect on the 7th day” value was “substantially had no effect” and the “course of efficacy within 7 days” value is “decreased rapidly”. In addition, in series [3] (30 mg), the “antidepressant effect (immobility time)” value is given as “antidepressant effect”, the “effect on the 7th day” value is given as “substantially had no effect” and the “course of efficacy within 7 days” value is “decayed rapidly”.

As to `CN[C@@]1(c2ccccc2Cl)CCC[C@@H](OC(=O)c2ccccc2)C1=O` [Compound C], in series [1], the “position preference effect on mice” value is recorded as “induced position preference”. The “behavioral sensitization effect on mice” value in series [2] is on record as “behavioral sensitizing effect; also recorded: behavioral sensitization effect”. Also, the “antidepressant effect (immobility time)” value in series [3] (30 mg) is “no antidepressant effect”. Further, in series [3], the antidepressant effect result is given as “no antidepressant effect”.

In the case of `CNC1(c2ccccc2Cl)CCCCC1=O` (centres unmarked) [ketamine], in series [6], the “patients with Hamilton Depression Scale score decreased by 50% or more” value is “more than 50%”.
